# Measurements from patent US12065445B2, “CDK2 inhibitors and methods of using the same” (Cedilla Therapeutics, Inc., priority 2021, dated 2024).
# Tested on: Kuramochi cells
# Assay: BrdU Cell Proliferation Assay
# Type: cell-based
# Conditions: read-out: BrdU - KURAMOCHI.1: IC50
# How it was run: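 Kuramochi cells were seeded at 2,000 cells/well, adhered overnight, then treated with a 10-point, 3-fold compound dilution series for 4 days. Proliferation was measured by a 1-hour BrdU pulse, anti-BrdU peroxidase colorimetric ELISA and 450 nm absorbance. Values were background-subtracted and normalized to DMSO wells.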
row,SMILES,IC50 [µM]
1,CC1(C)C[C@@H]1C(=O)N1CC2(CN(C(=O)c3cnn(Cc4ccccc4)c3)C[C@H]2C(=O)N2CCC[C@@H](OCC3CCCCC3)C2)C1 [I-254],> 10
2,CC1(C)C[C@@H]1C(=O)N1CC2(CN(C(=O)c3cnn(Cc4ccccc4)c3)C[C@H]2C(=O)N2CCO[C@H](Cc3ccccc3)C2)C1 [I-255],> 10
3,CC1(C)C[C@@H]1C(=O)N1CC2(CN(C(=O)c3cnn(Cc4ccccc4)c3)C[C@H]2C(=O)N2CC[C@H](OCC3CCCCC3)C2)C1 [I-256],5 to 10
4,CO[C@H](C)[C@H](NC(=O)[C@@H]1CN(C(=O)c2cnn(C)c2)CC12CN(C(=O)[C@H]1CC1(C)C)C2)C(=O)N1CCCCC1 [I-303],> 10
5,C[C@@H](O)[C@H](NC(=O)[C@@H]1CN(C(=O)c2cnn(C)c2)CC12CN(C(=O)[C@H]1CC1(C)C)C2)C(=O)N1CCCCC1 [I-305],0.5 to 5
6,"COC[C@H]1CCCN(C(=O)[C@@H](NC(=O)[C@@H]2CN(C(=O)c3cncs3)CC23CN(S(=O)(=O)C(C)(C)C)C3)[C@@H](C)OCC2CCCCC2)C1 [I-447, (S)-2-(tert-butylsulfonyl)-N-((2S,3R)-3-(cyclohexylmethoxy)-1-((S)-3-(methoxymethyl)piperidin-1-yl)-1-oxobutan-2-yl)-6-(thiazole-5-carbonyl)-2,6-diazaspiro[3.4]octane-8-carboxamide]",> 10

# Tested on: Kuramochi cells labeled with mApple-H2B
# Assay: IncuCyte Cell Proliferation Assay
# Type: cell-based
# Conditions: 72 h
# Experimental: IncuCyte® assay was used to measure the effect of disclosed compounds on cell proliferation. Fluorescent microscopy images of cells were taken immediately after compound treatment and 72 hours later. Image analysis software was used to obtain cell counts as a function of compound concentration. Kuramochi cells labeled with mApple-H2B were seeded on 384-well assay-ready plates. Plates were placed in an IncuCyte® (Sartorius) and scanned at 0 and 72 hours. IncuCyte® software was used to count the number of fluorescent nuclei in each well. The fold change in cell count from 0 to 72 hours in wells treated with increasing compounds concentrations (10 pts, ½ log dilution, 20 μM top concentration) was normalized to DMSO control wells. The normalized cell counts were fit with dose response curves and a […] was calculated.
row,SMILES,IC50 [µM]
1,"C[C@@H](OCC1CCCCC1)C(NC(=O)[C@@H]1CN(C(=O)c2cncs2)CC12CN(C(=O)[C@H]1CC1(C)C)C2)c1nnco1 (stereo in doubt) [I-415, (S)—N-((1S,2R)-2-(cyclohexylmethoxy)-1-(1,3,4-oxadiazol-2-yl)propyl)-2-((S)-2,2-dimethylcyclopropane-1-carbonyl)-6-(thiazole-5-carbonyl)-2,6-diazaspiro[3.4]octane-8-carboxamide]",0.5 to 5
2,CNC(=O)[C@@H](NC(=O)[C@H]1CN(C(=O)c2cnn(Cc3ccccc3)c2)CC12CN(C(=O)OC(C)(C)C)C2)[C@@H](C)OCc1ccccc1 [I-3B],> 20
3,[2H]C([2H])([2H])NC(=O)C(NC(=O)[C@@H]1CN(C(=O)c2cncs2)CC12CN(C(=O)[C@H]1CC1(C)C)C2)c1cccc(N2CCOCC2)n1 (some centres unmarked) [I-18],> 20
4,Cc1ccc(CNC(=O)[C@@H]2CN(C(=O)c3cnn(Cc4ccncc4F)c3)CC23CN(C(=O)[C@H]2CC2(C)C)C3)nn1 [I-35],> 20
5,C[C@@H](OCC1(C(F)(F)F)CC1)[C@H](NC(=O)[C@@H]1CN(C(=O)c2cncs2)CC12CN(C(=O)[C@H]1CC1(C)C)C2)C(=O)N1CCCCC1 [I-285],> 20
6,C[C@@H](OCC1(C(F)(F)F)CC1)[C@H](NC(=O)[C@H]1CN(C(=O)c2cncs2)CC12CN(C(=O)[C@H]1CC1(C)C)C2)C(=O)N1CCC(F)(F)CC1 [I-291],> 20
7,C[C@@H](OCC1(C(F)(F)F)CC1)[C@H](NC(=O)[C@H]1CN(C(=O)c2cncs2)CC12CN(C(=O)[C@H]1CC1(C)C)C2)C(=O)N1CCCCC1 [I-292],> 20
8,C[C@@H](OCC1CCOCC1)[C@H](NC(=O)[C@@H]1CN(C(=O)c2cn[nH]c2)CC12CN(C(=O)[C@H]1CC1(C)C)C2)C(=O)N1CCC(F)(F)CC1 [I-297],> 20
9,C[C@@H](OCC1CCCCC1)[C@H](NC(=O)[C@@H]1CN(C(=O)c2cnn(Cc3ccccc3)c2)CC12CN(C(=O)[C@H]1CC1(C)C)C2)C(=O)N1CCC(c2ccncc2)CC1 [I-300],≤ 0.5
10,"C[C@@H](OCC1CCC(F)(F)CC1)[C@H](NC(=O)[C@@H]1CN(C(=O)c2cn[nH]c2)CC12CN(C(=O)[C@H]1CC1(C)C)C2)C(=O)N1CCOCC1 [I-301, (S)—N-((2S,3R)-3-((4,4-difluorocyclohexyl)methoxy)-1-morpholino-1-oxobutan-2-yl)-2-((S)-2,2-dimethylcyclopropane-1-carbonyl)-6-(1H-pyrazole-4-carbonyl)-2,6-diazaspiro[3.4]octane-8-carboxamide]",> 20
11,C[C@@H](OCC1CCCCC1)[C@H](NC(=O)[C@@H]1CN(C(=O)c2cnn(Cc3ccccc3)c2)CC12CN(C(=O)[C@H]1CC1(C)C)C2)C(=O)N1CC[C@H]1CN [I-310],5 to 20
12,C[C@@H](OCC1CCOCC1)[C@@H](COC1CCC(F)(F)CC1)NC(=O)[C@@H]1CN(C(=O)c2cncs2)CC12CN(C(=O)[C@H]1CC1(C)C)C2 [I-312],0.5 to 5
13,C[C@@H](OCC1CCC(F)(F)CC1)[C@H](NC(=O)[C@@H]1CN(C(=O)c2cncs2)CC12CN(C(=O)[C@H]1CC1(C)C)C2)C(C)(C)O [I-313],0.5 to 5
14,C[C@@H](OCC1CCC(F)(F)CC1)[C@@H](COC1CCOCC1)NC(=O)[C@@H]1CN(C(=O)c2cncs2)CC12CN(C(=O)[C@H]1CC1(C)C)C2 [I-314],≤ 0.5
15,C[C@@H](OCC1CCC(F)(F)CC1)[C@@H](COC1CCC(F)(F)CC1)NC(=O)[C@@H]1CN(C(=O)c2cncs2)CC12CN(C(=O)[C@H]1CC1(C)C)C2 [I-315],0.5 to 5
16,CC(O[C@H](C)[C@@H](COC1CCC(F)(F)CC1)NC(=O)[C@@H]1CN(C(=O)c2cncs2)CC12CN(C(=O)[C@H]1CC1(F)F)C2)C1CCC(F)(F)CC1 (some centres unmarked) [I-316],> 20
17,COC[C@H]1CCCN(C(=O)[C@@H](NC(=O)[C@@H]2CN(C(=O)c3cncs3)CC23CN(C(=O)[C@H]2CC2(C)C)C3)[C@@H](C)OCc2ccc(OC(F)(F)F)cc2)C1 [I-320],0.5 to 5
18,C[C@@H](OCC1CCOCC1)[C@H](NC(=O)[C@@H]1CN(C(=O)c2cncs2)CC12CN(C(=O)[C@H]1CC1(C)C)C2)C(=O)N1CCC[C@H](COC(F)(F)F)C1 [I-327],5 to 20
19,C[C@@H](OCC1CCCCC1)[C@@H](COC1CCNCC1)NC(=O)[C@@H]1CN(C(=O)c2cncs2)CC12CN(C(=O)[C@H]1CC1(C)C)C2 [I-329],0.5 to 5

row,SMILES,IC50 [µM]
1,C[C@@H](OCC1CCCCC1)[C@@H](COC1CCOCC1)NC(=O)[C@@H]1CN(C(=O)c2cncs2)CC12CN(C(=O)[C@H]1CC1(C)C)C2 [I-331],≤ 0.5
2,C[C@@H](OCC1CCCCC1)[C@@H](COC1CCCNC1)NC(=O)[C@@H]1CN(C(=O)c2cncs2)CC12CN(C(=O)[C@H]1CC1(C)C)C2 (some centres unmarked) [I-332],5 to 20
3,"C[C@@H](OCC1CCOCC1)[C@@H](COC1CCC(F)(F)CC1)NC(=O)[C@@H]1CN(C(=O)c2cncs2)CC12CN(C(=O)C(C)(C)C1CC1)C2 [I-333, (S)-2-(2-cyclopropyl-2-methylpropanoyl)-N-((2R,3R)-1-((4,4-difluorocyclohexyl)oxy)-3-((tetrahydro-2H-pyran-4-yl)methoxy)butan-2-yl)-6-(thiazole-5-carbonyl)-2,6-diazaspiro[3.4]octane-8-carboxamide]",5 to 20
4,C[C@@H](OCC12CCC(CC1)OC2)[C@H](NC(=O)[C@@H]1CN(C(=O)c2cncs2)CC12CN(C(=O)C(C)(C)C1CC1)C2)C(C)(C)O [I-334],> 20
5,C[C@@H](OCC1CCC(F)(F)CC1)[C@H](NC(=O)[C@@H]1CN(C(=O)c2cncs2)CC12CN(C(=O)[C@H]1CC1(C)C)C2)C(=O)N1CCC2(CC1)COC2 [I-335],0.5 to 5
6,C[C@@H](OCC1CCC(F)(F)CC1)[C@H](NC(=O)[C@@H]1CN(C(=O)c2cncs2)CC12CN(C(=O)C(C)(C)C1CC1)C2)C(=O)N1CCC(O)CC1 [I-337],0.5 to 5
7,CNC(=O)C(NC(=O)[C@@H]1CN(C(=O)c2cncs2)CC12CN(C(=O)C(C)(C)C1CC1)C2)c1cccc(C2CCOCC2)n1 (some centres unmarked) [I-338],> 20
8,CC(C)(O)C(NC(=O)[C@@H]1CN(C(=O)c2cncs2)CC12CN(C(=O)C(C)(C)C1CC1)C2)c1cccc(C2CCOCC2)n1 (some centres unmarked) [I-339],> 20
9,CN(C)C(=O)C(NC(=O)[C@@H]1CN(C(=O)c2cncs2)CC12CN(C(=O)C(C)(C)C1CC1)C2)c1cccc(C2CCOCC2)n1 (some centres unmarked) [I-340],> 20
10,Cc1nc(C)c(C(=O)N2C[C@@H](C(=O)N[C@H](C(=O)N3CCC4(CC3)COC4)[C@@H](C)OCC34CCC(CC3)OC4)C3(C2)CN(C(=O)[C@H]2CC2(C)C)C3)s1 [I-343],> 20
11,CNC(=O)[C@@H](NC(=O)[C@@H]1CN(C(=O)c2cncs2)CC12CN(CC(C)(C)C)C2)[C@@H](C)OCC12CCC(CC1)OC2 [I-347],> 20
12,CNC(=O)[C@@H](NC(=O)[C@@H]1CN(C(=O)c2cncs2)CC12CN(CC1COC1)C2)[C@@H](C)OCC12CCC(CC1)OC2 [I-348],> 20
13,CNC(=O)[C@@H](NC(=O)[C@@H]1CN(C(=O)c2cncs2)CC12CN(Cc1ccco1)C2)[C@@H](C)OCC12CCC(CC1)OC2 [I-349],> 20
14,CNC(=O)[C@@H](NC(=O)[C@@H]1CN(C(=O)c2cncs2)CC12CN(Cc1cnco1)C2)[C@@H](C)OCC12CCC(CC1)OC2 [I-350],> 20
15,CNC(=O)[C@@H](NC(=O)[C@@H]1CN(C(=O)c2cncs2)CC12CN(Cc1ccn[nH]1)C2)[C@@H](C)OCC12CCC(CC1)OC2 [I-351],> 20
16,CNC(=O)[C@@H](NC(=O)[C@@H]1CN(C(=O)c2cncs2)CC12CN(CC1CCCO1)C2)[C@@H](C)OCC1CCCCC1 (some centres unmarked) [I-352],> 20
17,C[C@@H](OCC1CCCCC1)[C@H](NC(=O)C1CN(C(=O)c2cnn(Cc3ccccc3)c2)CC12CN(C(=O)[C@H]1CC1(C)C)C2)C(=O)NCCC(=O)O (some centres unmarked) [I-353],5 to 20
18,"Cc1ccc(CNC(=O)[C@@H]2CN(C(=O)c3cnn(Cc4ccccc4)c3)CC23CN(C(=O)C(C)(C)C2CC2)C3)nn1 [I-387, (S)-6-(1-benzyl-1H-pyrazole-4-carbonyl)-2-(2-cyclopropyl-2-methylpropanoyl)-N-((6-methylpyridazin-3-yl)methyl)-2,6-diazaspiro[3.4]octane-8-carboxamide]",> 20
19,CC1(C)C[C@@H]1C(=O)N1CC2(CN(C(=O)c3cnn(Cc4ccccc4)c3)C[C@H]2C(=O)NC[C@H]2CC[C@@H](C)CC2)C1 [I-388],0.5 to 5
